Source: patent US20110077402A1, “ADMINISTRATION OF DIPEPTIDYL PEPTIDASE INHIBITORS” (priority 2007, published 2011)

System: plasma glucose
Test: Effect of co-administration with pioglitazone on plasma glucose in db/db mice
Type: in vivo
Settings: male db/db mice, 21 days in powder chow (0.03% succinate salt of Compound I and/or 0.0075% pioglitazone hydrochloride), feeding condition, average (n=7) ± standard deviation; control 472.9 ± 74.6
Description: Male db/db (BKS.Cg-+Lepr^db/+Lepr^db) mice (6 weeks of age, CLEA Japan (Tokyo, Japan)) were divided into 4 groups (n=7 in each group) comprising Group A to Group D. Group A had free access to CE-2 powder chow (CLEA Japan) for 21 days. […] During 21 days of administration of the powder chow, there were not significant differences in the administration amount of the powder chow in the above 4 groups. After 21 days of administration of the powder chow, blood samples were taken from the orbital veins of the mice by capillary pipette under feeding condition, and plasma glucose levels were enzymatically measured by using Autoanalyzer 7080 (Hitachi, Japan). The values in the table means average (n=7)±standard deviation.

Compound	Plasma Glucose [mg/dL]
Cn1c(=O)cc(N2CCC[C@@H](N)C2)n(Cc2cc(F)ccc2C#N)c1=O [Compound I, 2-[6-(3-Amino-piperidin-1-yl)-3-methyl-2,4-dioxo-3,4-dihydro-2H-pyrimidin-1-ylmethyl]-4-fluoro-benzonitrile]	410.3 ± 47.9
CCc1ccc(CCOc2ccc(CC3SC(=O)NC3=O)cc2)nc1 (centres unmarked) [Pioglitazone, 5-{[4-(2-(5-ethyl-2-pyridyl)ethoxy)phenyl]-methyl}-thiazolidine-2,4-dione]	394.4 ± 47.9
